Data reported in patent US12590062B2, “PD-1/PD-L1 inhibitors” (Gilead Sciences, Inc., priority 2017, dated 2026).

Assays:
PD-1/PD-L1 = PD-1/PD-L1 (Homo sapiens, UniProt Q9NZQ7); assay: PD-1/PD-L1 biochemical protein-protein interaction assay (ALPHA); format: binding; conditions: 0.3 nM His tagged PD-L1, 2.5 nM biotinylated Fc-PD-1, 60 minutes at 25° C., read-out: IC50 PD-L1-PD-1 Alpha IC50-mono PD-L1-fcP-D1
Summary of the method: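 ALPHA bead proximity assay of extracellular domains: 0.3 nM His-PD-L1 with 2.5 nM biotinylated Fc-PD-1 in 25 mM Hepes pH 7.4, 150 mM NaCl, 3.4 mM EDTA, 0.005% Tween 20, 0.01% BSA, 60 min at 25 °C. Anti-His acceptor and streptavidin donor beads added; IC50 from four-parameter fit of signal loss.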

PD-1/PD-L1 interaction = biological target: T1, PD-1/PD-L1 interaction (Homo sapiens, UniProt Q9NZQ7); assay: PD-1/PD-L1 NFAT reporter co-culture assay; format: cell-based; conditions: Jurkat PD-1 NFAT-luciferase cells co-cultured with aAPC-PD-L1 CHO cells, 6 hrs at 37° C.; read-out: EC50 NFAT Luciferase
T1 construct: expressed in transfected cells; host or cells: CHO cells (aAPC-PD-L1) co-cultured with Jurkat cells overexpressing PD-1 and an NFAT-luciferase reporter
Summary of the method: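 Luminescence (ONE-Glo) after 6 h, 37 °C co-culture reports NFAT-luciferase in PD-1 Jurkat cells, which PD-1/PD-L1 engagement suppresses. Partner cells: CHO expressing anti-CD3 and PD-L1. EC50 from four-parameter dose-response fit.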

PD-L1 = biological target: T2, PD-L1 (Homo sapiens, UniProt Q9NZQ7); assay: PD-L1/PD-L1 dimerization biochemical protein-protein interaction assay (ALPHA); format: binding; conditions: compound-induced PD-L1 dimerization, head prints '1 nM' (0.5 nM His-tagged PD-L1 and 0.5 nM FLAG-tagged PD-L1), read-out: AC50 PDL1 Dimer Alpha 1 nM
T2 construct: determine if they can specifically dimerize the extracellular domains of PD-L1
Summary of the method: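 ALPHA proximity assay of compound-induced dimerization of 0.5 nM His-tagged and 0.5 nM FLAG-tagged PD-L1 extracellular domains in Hepes pH 7.4 buffer, 2 h at 25 °C. Anti-His acceptor then anti-FLAG donor beads, 60 min each; AC50 from four-parameter fit.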

T1 sequence (Q9NZQ7 19-290): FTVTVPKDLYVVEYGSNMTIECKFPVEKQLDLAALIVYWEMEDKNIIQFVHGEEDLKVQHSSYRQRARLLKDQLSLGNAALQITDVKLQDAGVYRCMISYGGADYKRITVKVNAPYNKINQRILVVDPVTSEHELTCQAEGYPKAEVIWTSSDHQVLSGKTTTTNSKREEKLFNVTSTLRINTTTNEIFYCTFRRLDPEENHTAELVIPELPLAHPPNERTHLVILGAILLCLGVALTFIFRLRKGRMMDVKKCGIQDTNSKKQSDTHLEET
Sequence of PD-1/PD-L1 (Q9NZQ7 19-238 limits assumed): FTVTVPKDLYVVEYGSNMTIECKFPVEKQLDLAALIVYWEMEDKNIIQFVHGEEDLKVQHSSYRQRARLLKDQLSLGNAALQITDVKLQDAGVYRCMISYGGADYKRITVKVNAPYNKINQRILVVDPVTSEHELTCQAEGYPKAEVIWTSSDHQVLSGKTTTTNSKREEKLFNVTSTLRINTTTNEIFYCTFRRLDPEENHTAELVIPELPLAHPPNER
T2 sequence (Q9NZQ7 19-238 limits assumed): as above
T2 sequence (Q9NZQ7 19-238 limits assumed): as above

| IC50 (PD-1/PD-L1) [nM] | EC50 (PD-1/PD-L1 interaction) [nM] | AC50 (PD-L1) [nM] | Compound |
| --- | --- | --- | --- |
| 0.147 | 2980 | 314 | COc1nc(-c2cccc(-c3cccc(N4Cc5cc(CNC[C@@H]6CCC(=O)N6)ccc5C4=O)c3Cl)c2Cl)ccc1CNC[C@@H]1CCC(=O)N1 [Example 632] |
| 1.26 | 2280 | 2840 | COc1nc(-c2cccc(-c3cccc(-c4nc5ccc(CNC[C@@H]6CCC(=O)N6)cn5n4)c3Cl)c2Cl)ccc1CNC[C@@H]1CCC(=O)N1 [Example 633] |
| 0.208 | 495 | 96.9 | COc1nc(-c2cccc(-c3cccc(-c4nc5cc(CNCCO)cc(OC)c5o4)c3Cl)c2Cl)ccc1CNCCO [Example 634] |
| 0.1 | ≥ 50000 | 340 | OCCNCc1cc(Cl)c2nc(-c3cccc(-c4cccc(-c5nc6c(Cl)cc(CNCCO)cn6n5)c4Cl)c3Cl)nn2c1 [Example 635] |
| 0.188 | 180 | 83.6 | COc1nc(-c2cccc(-c3cccc(-c4nc5cc(CNCCO)ccc5o4)c3Cl)c2Cl)ccc1CNCCO [Example 636] |
| 0.064 | 90 | 20.8 | CS(=O)(=O)c1cncc(COc2nc(O[C@H]3CCc4c(-c5cccc(-c6ccc(OCCNCCO)cc6)c5Cl)cccc43)c(Cl)cc2CNC[C@@H](O)CC(=O)O)c1 [Example 637, (S)-4-(((5-chloro-6-(((S)-4-(2-chloro-4′-(2-((2-hydroxyethyl)amino)ethoxy)-[1,1′-biphenyl]-3-yl)-2,3-dihydro-1H-inden-1-yl)oxy)-2-((5-(methylsulfonyl)pyridin-3-yl)methoxy)pyridin-3-yl)methyl)amino)-3-hydroxybutanoic acid] |
| 0.064 | 429 | 23.8 | COc1nc(O[C@H]2CCc3c(-c4cccc(-c5nc6cc(CNCCO)ccn6n5)c4Cl)cccc32)c(Cl)cc1CNCCO [Example 638, (S)-2-(((2-(2-chloro-3-(1-((3-chloro-5-(((2-hydroxyethyl)amino)methyl)-6-methoxypyridin-2-yl)oxy)-2,3-dihydro-1H-inden-4-yl)phenyl)-[1,2,4]triazolo[1,5-a]pyridin-7-yl)methyl)amino)ethan-1-ol] |
| 0.064 | 60 | 34.7 | COc1nc(-c2cccc(-c3cccc4c3CC[C@@H]4Oc3nc(OC)c(CN4CC[C@@H](c5nnn[nH]5)C4)cc3Cl)c2Cl)ccc1CNC[C@@H]1CCC(=O)N1 [Example 641] |
| 2.36 | 194 | 67.2 | COc1nc(O[C@H]2CCc3c(-c4cccc(-c5cnc(CNC[C@@H]6CCC(=O)N6)c(OC)n5)c4Cl)cccc32)c(Cl)cc1CN[C@@H]1CCC[C@@H]1O [Example 642] |
| 0.734 | 89 | 39 | COc1nc(O[C@H]2CCc3c(-c4cccc(-c5cnc(CN[C@@H]6CCC[C@@H]6O)c(OC)n5)c4Cl)cccc32)c(Cl)cc1CN[C@@H]1CCC[C@@H]1O [Example 643] |
| 1.95 | 82 | 136 | COc1nc(-c2cccc(-c3cccc4c3CC[C@@H]4Oc3nc(OC)c(CNC[C@@H]4CCC(=O)N4)cc3Cl)c2Cl)ccc1CN[C@@H]1CCC[C@@H]1O [Example 644] |
| 0.064 | 30 | 30.7 | COc1nc(-c2cccc(-c3cccc4c3CC[C@@H]4Oc3nc(OC)c(CN[C@@](C)(CO)C(=O)O)cc3Cl)c2Cl)ccc1CN[C@@H]1CCC[C@@H]1O [Example 645] |
| 6.25 | 145 | 73.2 | COc1nc(-c2cccc(-c3cccc4c3CC[C@@H]4Oc3nc(OC)c(CN[C@@H]4CCC[C@@H]4O)cc3Cl)c2Cl)ccc1CN[C@@H]1CCC[C@@H]1O [Example 646] |
| 1.89 | 234 | 211 | COc1nc(O[C@H]2CCc3c(-c4cccc(-c5cnc(CN[C@@H]6CCC[C@@H]6O)c(OC)n5)c4Cl)cccc32)c(Cl)cc1CNC[C@@H]1CCC(=O)N1 [Example 647] |
| 0.064 | 57 | 60.9 | COc1nc(O[C@H]2CCc3c(-c4cccc(-c5cnc(CN[C@@H]6CCC[C@@H]6O)c(OC)n5)c4Cl)cccc32)c(Cl)cc1CN[C@@](C)(CO)C(=O)O [Example 648] |
| 0.064 | 29 | 38.8 | COc1nc(O[C@H]2CCc3c(-c4cccc(-c5cnc(CNC[C@@H]6CCC(=O)N6)c(OC)n5)c4Cl)cccc32)c(Cl)cc1CN[C@@](C)(CO)C(=O)O [Example 649] |
| 0.288 | 39 | 8.2 | COc1nc(O[C@H]2CCc3c(-c4cccc(-c5ccc(CNC[C@@H]6CCC(=O)N6)c(OCC#N)c5)c4Cl)cccc32)c(Cl)cc1CN[C@@H]1CCC[C@@H]1O [Example 650] |

| IC50 (PD-1/PD-L1) [nM] | EC50 (PD-1/PD-L1 interaction) [nM] | AC50 (PD-L1) [nM] | Compound |
| --- | --- | --- | --- |
| 0.297 | 41 | 29.5 | COc1nc(O[C@H]2CCc3c(-c4cccc(-c5ccc(CNC[C@@H]6CCC(=O)N6)c(OCC#N)n5)c4Cl)cccc32)c(Cl)cc1CN[C@@H]1CCC[C@@H]1O [Example 651] |
| 0.158 | 59 | 140 | COc1nc(O[C@H]2CCc3c(-c4cccc(-c5cnc(CNC[C@@H]6CCC(=O)N6)c(OC)n5)c4Cl)cccc32)c(Cl)cc1CNC[C@@H]1CCC(=O)N1 [Example 652] |
| 0.17 | 93 | 105 | N#CCOc1cc(-c2cccc(-c3cccc4c3CC[C@@H]4Oc3nc(OCC#N)c(CNC[C@@H]4CCC(=O)N4)cc3Cl)c2Cl)ccc1CNC[C@@H]1CCC(=O)N1 [Example 653] |
| 0.09 | 27 | 10.9 | COc1nc(O[C@H]2CCc3c(-c4cccc(-c5ccc(CNC[C@@H]6CCC(=O)N6)c(OCC#N)c5)c4Cl)cccc32)c(Cl)cc1CNC[C@@H](O)CC(=O)O [Example 654] |
| 0.404 | 28 | 26 | COc1nc(O[C@H]2CCc3c(-c4cccc(-c5ccc(CNC[C@@H]6CCC(=O)N6)c(OCC#N)c5)c4Cl)cccc32)c(Cl)cc1CNC[C@@H]1CCC(=O)N1 [Example 655] |
| 0.29 | 24 | 37.7 | COc1nc(O[C@H]2CCc3c(-c4cccc(-c5ccc(CNC[C@@H]6CCC(=O)N6)c(OCC#N)n5)c4Cl)cccc32)c(Cl)cc1CNC[C@@H]1CCC(=O)N1 [Example 656] |
| 0.795 | 197 | 156 | COc1nc(O[C@H]2CCc3c(-c4cccc(-c5ccc(CNC[C@@H]6CCC(=O)N6)c(OC(F)F)c5)c4Cl)cccc32)c(Cl)cc1CNC[C@@H]1CCC(=O)N1 [Example 657] |
| 0.221 | 51 | 78.5 | COc1nc(-c2cccc(-c3cccc4c3CC[C@@H]4Oc3nc(OCC#N)c(CNC[C@@H]4CCC(=O)N4)cc3Cl)c2Cl)ccc1CNC[C@@H]1CCC(=O)N1 [Example 658] |
| 0.064 | 51 | 22.1 | CS(=O)(=O)c1cncc(COc2nc(O[C@H]3CCc4c(-c5cccc(-c6ccc(CN)cc6)c5Cl)cccc43)c(Cl)cc2CNC[C@@H](O)CC(=O)O)c1 [Example 659] |
| 0.064 | 107 | 15.2 | C[C@@](CO)(NCc1cc(Cl)c(O[C@H]2CCc3c(-c4cccc(-c5ccc(OCCNCCO)cc5)c4Cl)cccc32)nc1OCc1cncc(S(C)(=O)=O)c1)C(=O)O [Example 660] |
| 0.256 | 159 | 126 | N#Cc1cncc(COc2nc(O[C@H]3CCc4c(-c5cccc(-c6ccc(OCCNCCO)cc6)c5Cl)cccc43)ccc2CNC[C@@H](O)CC(=O)O)c1 [Example 661] |
| 0.139 | 83 | 14.5 | N#Cc1cncc(COc2nc(O[C@H]3CCc4c(-c5cccc(-c6ccc(OCCNCCO)cc6)c5Cl)cccc43)c(Br)cc2CNC[C@@H](O)CC(=O)O)c1 [Example 662] |
| 0.064 | 118 | 6.56 | C[C@@](CO)(NCc1cc(Br)c(O[C@H]2CCc3c(-c4cccc(-c5ccc(OCCNCCO)cc5)c4Cl)cccc32)nc1OCc1cncc(C#N)c1)C(=O)O [Example 663] |
| 2.6 | ≥ 50000 | ≥ 10000 | CNCc1cc(Cl)c(O[C@H]2CCc3c(-c4cccc(-c5ccc(OCCN6CC[C@@H](O)C6)cc5)c4Cl)cccc32)nc1OCc1cncc(S(C)(=O)=O)c1 [Example 664] |
| 0.064 | 150 | 16.5 | CC(C)(NCc1cc(Cl)c(O[C@H]2CCc3c(-c4cccc(-c5ccc(OCCN6CC[C@@H](O)C6)cc5)c4Cl)cccc32)nc1OCc1cncc(S(C)(=O)=O)c1)C(=O)O [Example 665] |
| 0.076 | 418 | 22.9 | CS(=O)(=O)c1cncc(COc2nc(O[C@H]3CCc4c(-c5cccc(-c6ccc(OCCN7CC[C@@H](O)C7)cc6)c5Cl)cccc43)c(Cl)cc2CNC[C@@H](O)CC(=O)O)c1 [Example 666] |
| 0.064 | 1890 | 17 | CC(C)(NCc1cc(Cl)c(O[C@H]2CCc3c(-c4cccc(-c5ccc(OCCN6CC[C@@H](O)C6)cc5)c4Cl)cccc32)nc1OCc1cncc(C#N)c1)C(=O)O [Example 667] |
